#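 These data come from cells grown in 96-well plates and exposed to compound for 48 hours at five concentrations. At the TGI there is no net growth.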
# Experiments:
# Experiment in all cases: inhibition of tumour cell growth, NCI panel, 48 h
# UACC-257 melanoma = test system: UACC-257 melanoma
# DU-145 prostate = test system: DU-145 prostate
# MDA-MB-435 = test system: MDA-MB-435
# MDA-N = test system: MDA-N
# PC-3 prostate = test system: PC-3 prostate
# BT-549 breast = test system: BT-549 breast
# NCI/ADR-RES ovarian = test system: NCI/ADR-RES ovarian
# SK-MEL-5 melanoma = test system: SK-MEL-5 melanoma
# SK-OV-3 ovarian = test system: SK-OV-3 ovarian
# RXF 393 renal = test system: RXF 393 renal
# K-562 leukemia = test system: K-562 leukemia
# SK-MEL-28 melanoma = test system: SK-MEL-28 melanoma
# OVCAR-8 ovarian = test system: OVCAR-8 ovarian
# NCI-H460 lung = test system: NCI-H460 lung
# ACHN renal = test system: ACHN renal
# HCT-116 colon = test system: HCT-116 colon
# SNB-19 CNS = test system: SNB-19 CNS
# NCI-H522 lung = test system: NCI-H522 lung
# RPMI-8226 leukemia = test system: RPMI-8226 leukemia
# SK-MEL-2 melanoma = test system: SK-MEL-2 melanoma
SMILES,TGI (UACC-257 melanoma) [µM],TGI (DU-145 prostate) [µM],TGI (MDA-MB-435) [µM],TGI (MDA-N) [µM],TGI (PC-3 prostate) [µM],TGI (BT-549 breast) [µM],TGI (NCI/ADR-RES ovarian) [µM],TGI (SK-MEL-5 melanoma) [µM],TGI (SK-OV-3 ovarian) [µM],TGI (RXF 393 renal) [µM],TGI (K-562 leukemia) [µM],TGI (SK-MEL-28 melanoma) [µM],TGI (OVCAR-8 ovarian) [µM],TGI (NCI-H460 lung) [µM],TGI (ACHN renal) [µM],TGI (HCT-116 colon) [µM],TGI (SNB-19 CNS) [µM],TGI (NCI-H522 lung) [µM],TGI (RPMI-8226 leukemia) [µM],TGI (SK-MEL-2 melanoma) [µM]
CC1(C)CO[P@@](=S)(c2ccccn2)O[C@@H]1c1ccccc1,> 100,> 100,> 100,> 100,> 100,> 100,> 100,> 100,> 100,> 100,> 100,> 100,> 100,> 100,> 100,> 100,> 100,> 100,–,–
N#CCCN(CCC#N)c1ccc(/C=C2\N=C(c3ccccc3)N(c3ccc(C(=O)O)cc3)C2=O)cc1,> 100,> 100,> 100,> 100,> 100,71.2,> 100,> 100,> 100,> 100,> 100,> 100,73.1,> 100,> 100,> 100,> 100,–,> 100,> 100
Cc1ccc(/C=C2\NC(=S)NC2=O)cc1,–,> 100,> 100,> 100,> 100,> 100,> 100,> 100,> 100,> 100,> 100,> 100,> 100,–,–,> 100,> 100,> 100,> 100,> 100
CC(=O)NC1(NC(C)=O)C2CC(C1Cc1ccccc1)C(C)(C)C2C (stereo not drawn),> 100,> 100,> 100,> 100,> 100,> 100,–,> 100,> 100,> 100,> 100,> 100,> 100,> 100,> 100,> 100,> 100,> 100,–,–
O=c1[nH]ncc2[nH]c3c4ccccc4ccc3c12,–,> 100,62.4,> 100,> 100,> 100,> 100,> 100,> 100,> 100,> 100,–,> 100,> 100,> 100,> 100,–,66.6,> 100,–
O=C(O)c1nc2ccc(C(F)(F)F)cc2nc1Nc1ccc(Cl)c(Cl)c1,56.4,–,19.1,25.3,15.8,14.7,19.7,23.7,–,28.9,16.3,26.6,17.6,20.8,49.7,17.1,10.9,15.2,–,11.2
FC(F)(F)c1ccc2c(c1)nc1n2C(c2c(Cl)cccc2Cl)SC1 (stereo not drawn),42.9,56.1,41.4,36.8,37.9,55.3,58.9,–,85.9,28.7,–,43.3,74.7,35,40.3,29.5,48.7,51.9,–,40.8
CCCCCCCCC/C=C1/CC(CO)(COC(=O)CC(C(C)C)C(C)C)OC1=O (stereo not drawn),26,25.3,19.6,18.3,21.3,27.7,28.1,21.9,31.5,27.8,28.6,31.8,29.8,18.2,18.6,26.6,23.9,23.6,–,29.7
CC1(C)OCC(C2OC3OC(C)(C)OC3C2c2ccccc2)O1 (stereo not drawn),> 100,> 100,93.5,> 100,98.7,–,> 100,33.2,> 100,> 100,> 100,> 100,> 100,> 100,> 100,> 100,> 100,> 100,> 100,64.8
CCOC(=O)C(=CNc1ccc(N(C2=NCC(C)S2)c2ccc(F)c(Cl)c2)cc1)C(=O)OCC (stereo not drawn),34,43.9,55.9,43.1,50.9,–,33.7,36.7,70.7,21.3,> 100,42.5,37.3,49.7,39.8,31.4,54.5,30.3,72.8,43.7
CC(=O)O[C@H]1CC[C@@]2(C)C(=CC[C@@H]3[C@@H]2CC[C@]2(C)c4c(n[nH]c4C)C[C@@H]32)C1,33.2,27.2,33.9,46.6,58.2,32.1,85.1,29.5,46.1,23.9,> 100,45.2,92.9,32.4,43.5,44.5,42.3,23,–,–
Oc1ccc(/C=C/c2cccc(/C=C/c3ccc(O)c(O)c3)n2)cc1O,28.5,20.6,28,20.5,> 100,> 100,26.7,15.8,34,–,49.6,38.3,20.8,38.1,18.7,20.1,18.8,–,31.1,32.5
O=C1CCCC/C1=C\c1ccc([N+](=O)[O-])cc1,38.5,> 100,–,41.5,4.46,59.3,57.1,> 100,30.9,–,32.1,23.5,37.1,> 100,68.1,25.7,32.5,30.2,44.3,46
Cc1ccc2nc3n[nH]c(N)c3nc2c1,> 100,> 100,> 100,> 100,> 100,> 100,> 100,> 100,> 100,> 100,–,> 100,> 100,> 100,> 100,> 100,> 100,> 100,> 100,> 100
Nc1ccc(-c2nc3ccc(F)cc3s2)cc1Cl,> 100,> 100,> 100,> 100,> 100,> 100,> 100,> 100,> 100,> 73.8,> 100,> 100,> 100,–,> 100,–,> 100,> 100,> 100,> 100
Cc1ccc(S(=O)(=O)CNC(=O)C(O)(O)C(F)(F)F)cc1,> 100,> 100,> 100,> 100,> 100,> 100,> 100,> 100,> 100,> 100,> 100,> 100,> 100,> 100,–,> 100,> 100,> 100,> 100,> 100
O=C(Nc1cccc(F)c1)c1cc2ccc(O)cc2oc1=Nc1cccc(F)c1,> 100,> 100,> 100,> 100,> 100,34.3,74.5,14.7,> 100,–,> 100,> 100,6.32,> 100,> 100,> 100,> 100,13,> 100,> 100
N#Cc1c2ccc([N+](=O)[O-])cc2c(=O)n2c1[nH]c1ccc(C(F)(F)F)cc12,> 100,> 100,> 100,> 100,> 100,> 100,> 100,> 100,> 100,–,45.7,> 85.4,> 100,> 100,> 100,> 41.6,> 100,38.7,13.6,> 100
c1ccc2cc3c(NC4=NCCO4)cccc3cc2c1,> 100,> 100,98.8,3.57,> 100,–,> 100,> 100,> 100,> 100,> 100,> 100,> 100,> 100,> 100,> 100,> 100,> 100,> 100,> 100
CCC(C)C(N)C(=O)N/N=C\c1c2c(nc3ccccc13)-c1cc3c(c(=O)n1C2)COC(=O)[C@]3(O)CC (stereo partly drawn),11.9,2.04,> 81,> 100,> 100,> 30.2,–,0.452,> 64.5,0.218,> 45.1,> 100,> 20,1.5,0.575,2.96,0.69,3.23,11.4,6.59
O=C1/C(=C\c2ccc(Br)cc2)CCCc2ccccc21,39.6,49.4,61.5,47,55.4,55.9,27.2,–,> 100,43.3,> 100,40.9,28.2,34,30.6,24.8,32.6,–,48.8,39.2
CC(=O)C(C)C(=O)N1C(=O)N(C)C2(C)N(C)C(=O)NC12C (stereo not drawn),–,> 100,> 100,> 100,–,> 100,> 100,> 100,> 100,–,–,> 100,–,> 100,> 100,> 100,> 100,> 100,> 100,> 100
O=C(c1ccccc1)N1C(=O)N(c2ccccc2)C(=Nc2ccccc2)C1=Nc1ccccc1,> 100,> 100,> 100,> 100,> 100,–,> 100,> 100,> 100,> 100,> 100,> 100,> 100,> 100,> 100,> 100,> 100,> 100,> 100,> 100
CC(=O)C(C(=O)c1ccc(C)cc1)[C@H]1OC(C)(C)O[C@H]1[C@H]1COC(C)(C)O1 (stereo partly drawn),11.9,–,9.55,6.63,9.17,> 50,> 50,12.2,18.4,9.01,> 50,15.8,12.6,17.2,13.2,6.81,17.3,14.2,> 50,9.52
COC1(C2c3ccccc3CCN2C(=O)OC(C)(C)C)C(=O)C(c2ccccc2)=C1N(C)C (stereo not drawn),> 100,> 100,61.6,64,82.4,75,57.9,58.9,> 100,> 100,–,> 100,> 100,> 100,> 100,96.9,> 100,56.8,–,66.5

# — PubChem BioAssay (NCI)
